Patent US12064480B2, “Immunigenic alpha-branched trehalose-diesters” (GLAXOSMITHKLINE BIOLOGICALS SA, priority 2018, dated 2024)

How the values were obtained:
mouse Raw cell line = test: Cytokine production (TNFα) from mouse Raw cells; format: cell-based; details: for TNFα potency in mouse cell line compared to human cells: mouse Raw cells vs human cells; for TNFα potency in mouse cell line compared to human cells / TNFα efficacy/peak levels relative to the other reference compounds / TNFα potency relative to sTDCM: FIG. 4A
Description: The compounds were screened for their ability to induce TNFα from the mouse Raw cell line. An aim of this study was to determine if species specific differences in responses to compounds may be observed.

human PBMCs = test: Cytokine production from human PBMCs (Luminex multiplex panel); format: cell-based; details: human cells
Description: TDM (trehalose-6,6′-dimycolate) was obtained from Sigma. TDB (6,6′-dibehenoyl-α,α′-trehalose) was obtained from Avanti Polar Lipids. MMG (glycerol monomycolate) was prepared according to the procedure of Andersen et. al. sTDCM (synthetic trehalose dicorynomycolate) was obtained from Sigma-Aldrich (Catalog Number S3452).
PBMCs were obtained via leukapheresis from normal donors (AllCells, Berkeley, CA). Upon receipt PBMCs were repeatedly washed in 1×PBS and cryopreserved in freezing media (50% RPMI, 40% FCS, 10% DMSO) for future use. For assay, cells were immediately thawed into RPMI media, 10% heat inactivated FBS, 1× penicillin/streptomycin/glutamine (complete media), washed once and resuspended to the desired cell concentration in complete media. Cells were treated with the indicated compound concentrations by addition to plates containing serial dilution of the stock compound in diluent (50% isopropanol/50% isooctane). Compounds were applied, 20 ul final volume, to the bottom of a tissue culture plate and solvent was allowed to fully evaporate (i.e. plate coating) before cell addition.
Supernatants were harvested from treated cells 18-24 h post cell application. Supernatants were analyzed using a Luminex multiplex panel for analytes TNFα, IL-1β, IL-6, IFNγ, IL-12p70 and IL-23 per the manufacturer's instructions.

Compound	TNFα potency in mouse cell line compared to human cells (mouse Raw cell line)	TNFα efficacy/peak levels relative to the other reference compounds (mouse Raw cell line; mouse Raw cells)	TNFα potency relative to sTDCM (mouse Raw cell line; mouse Raw cells)	MMG/sTDCM potency difference (human PBMCs) [fold]	fold less potent than sTDCM (mouse Raw cell line; mouse Raw cells, TNFα)	TNFα induction (activity) (mouse Raw cell line; mouse Raw cells, FIG. 4)
trehalose-6,6′-dimycolate [TDM]	more potent in the mouse cell line as compared to human cells	higher efficacy/peak levels	equivalent potency	–	–	–
CCCCCCCCCCCCCCCCCCCCCC(=O)OC[C@H]1O[C@H](O[C@H]2O[C@H](COC(=O)CCCCCCCCCCCCCCCCCCCCC)[C@@H](O)[C@H](O)[C@H]2O)[C@H](O)[C@@H](O)[C@@H]1O [TDB, 6,6′-dibehenoyl-α,α′-trehalose]	more potent in the mouse cell line as compared to human cells	higher efficacy/peak levels	equivalent potency	–	–	–
glycerol monomycolate [MMG]	–	equivalent levels	–	~10	over 100 fold	some activity
